Data set [1] can be described thus: Microsomal stability, human liver microsomes. As to conditions: human, microsomes, 0.75 h, 5 μM, pH 7.4. The protocol:
(§1) GIBIO pooled human liver microsomes (HLM) (Cat # HMMCPL), mouse liver microsomes (MLM) (Cat # BCMCPL), and rat liver microsomes (RLM) (Cat # RTMCPL) were purchased from Life Technologies. […] Samples are incubated for 30, 45, or 60 min. Reaction is terminated with ice-cold acetonitrile 0.3% formic acid. Samples are subsequently centrifuged at 4° C. for 15 min at 20,000×g. The supernatant is analysed by LC-MS.
(§2) Compound in vitro metabolic stability was assayed using liver microsomes (LM) at 0.5 mg/mL of proteins, incubated for 30 min (mouse, MLM), 45 min (rat, RLM), 30 or 45 min (human, HLM). % of remaining parent compound was measured using LC-MS.
(Microsomes from liver hold many membrane-bound enzymes, among them those of drug oxidation.)

Data set [2] can be described thus: Microsomal stability, mouse liver microsomes. As to conditions: mouse, microsomes, 0.5 h, 5 μM, pH 7.4. The protocol: as §1, §2
The nature of data set [3]: Microsomal stability, rat liver microsomes. As to conditions: rat, microsomes, 0.75 h, 5 μM, pH 7.4. The protocol:
as §1, §2

Data set [4] concerns histone 3 (Lys 9) and α-tubulin acetylation (HDACs) in PC-3 cells. The experiment in a line: Western blot, acetylation of histone 3 (Lys 9) and α-tubulin in PC-3 cells. The format is cell-based, human. The note with it: 24 h, 1 or 10 μM. The protocol:
Proteins in cell lysates are resolved by SDS-PAGE and transferred to PVDF and probed with appropriate primary and secondary antibodies. […] Representative Western blot images are shown in FIG. 15 and analyzed results are presented by FIGS. 17 to 20.
PC-3 cells were treated with test compounds at the following concentrations (all contain 0.1% DMSO) for 24 h at 37° C., and then processed according to section of Western Blot Analysis.
The graph represents results from two Western Blot analyses. […] Vehicle DMSO (0.1%) was used as blank control, and its acH3 level was normalized to 1. Y Axis is expressed as Mean±SD if applicable.
Vehicle DMSO (0.1%) as blank control, and its acetylation level was normalized to 1. Y Axis is expressed as Mean±SD if applicable.
A general note: A western blot detects proteins with antibodies after separation by electrophoresis.

For data set [5], the system named is MV-4-11 cells. Briefly: Caspase activity assay, MV-4-11 cells. The note with it: Homo sapiens, MV4-11, 24 h, read-out: EC50 induction of caspase activity. The format is cell-based, human. The protocol:
Cells are cultivated and treated with test compounds in 96-well plates as described in the above Cell Culture and Anti-Proliferative Assays section. […] The incubation time can be extended up to overnight (18 h) if the Caspase activity is low. Staurosporine is used as positive control.
Y Axis is expressed as Mean±SD if applicable.

Data set [6] has as its system MV-4-11 cells. The experiment in a line: Cell viability/cytotoxicity assay (CytoTox-Glo), MV-4-11 cells. The note with it: Homo sapiens, MV4-11, 48 h, read-out: cell death potency EC50. The format is cell-based, human. As for the experimental part: Cells are cultivated and treated with test compounds in 96-well plates as described in the above Cell Culture and Anti-Proliferative Assays section, the content of dead cells and viable cells are measured using CytoTox-Glo™ Cytotoxicity Assay kit (Promega) per manufacture's protocol. Briefly, CytoTox-Glo™ Cytotoxicity Assay Reagent (48 μL/well) is added to the cells in 96-well plate and the luminescent signals are recorded using a BioTek Synergy H4 reader, then Lysis Reagent (48 μL/well) is added and the luminescent signals derived from both dead and viable cells are recorded. Viability can be calculated by subtracting the luminescent signal resulting from experimental cell death from total luminescent values. Staurosporine is used as positive control.
Fold of cell death of treated vs untreated was monitored at different time points. […] Y Axis is expressed as Mean±SD if applicable.

In a further data set the test system is MV4-11 tumors. As to conditions: EX2 IV 50, IP 100, PO 150 mg/kg; EX78 IV 25, PO 100 mg/kg; Western blot of tumors.
The test system of another data set is HepG2 xenograft. As to conditions: NCr nude mice, 150 mg/kg oral.
For the next data set, the system named is HuH-7 xenograft. As to conditions: HuH-7, NCr nude mice, 150 mg/kg oral.
The test system of another data set is NCI-H460 xenograft. As to conditions: CB17 scid mice, 150 mg/kg oral.
A further data set deals with MV-4-11. The note with it: read-out: In Vitro Cellular IC50 MV-4-11; Table 4; 72 h.
Data set [7] addresses HDAC (HeLa nuclear extracts). Briefly: HDAC enzyme assay, HeLa nuclear extracts. The note with it: read-out: In Vitro Enzymatic IC50 HDAC (HeLa).
The subject of another data set is PC-3. Briefly: Anti-proliferative assay (cellular IC50), PC-3. As to conditions: read-out: In Vitro Cellular IC50 PC-3; Table 4; 72 h.

In general, EC50 refers to the concentration needed to bring the measured effect to its halfway point. Consider `O=C(CCCCCCn1cnc2c(N3CCOCC3)nc(-c3cccc(CO)c3)nc21)NO` [compound 2, N-hydroxy-7-(2-(3-(hydroxymethyl)phenyl)-6-morpholino-9H-purin-9-yl)heptanamide], for which the “Microsomal Stability HLM, % of remaining parent compound” value in data set [1] amounted to 99%. Besides, the “Microsomal Stability MLM, % of remaining parent compound” value in [2] came out at 99%. Also, in data set [3], the “Microsomal Stability RLM, % of remaining parent compound” value was found to be 57%. Moreover, the “Hyperacetylation of histone 3 (Lys 9) and α-tubulin” value in [4] is “the hyperacetylation effect is dose-dependent”. Also, the EC50 with MV-4-11 cells [5] is 500 nM; in the data set on MV-4-11 cells [6] it was 69 nM. Also, in the data set on MV4-11 tumors, the “Hyperacetylation of H3 in MV4-11 tumors” value is listed as “hyperacetylation of H3 in MV4-11 tumors”. In addition, the Tolerability result was “well tolerated” in the data set with HepG2 xenograft, “well-tolerated” in the data set with HuH-7 xenograft and “well tolerated” with NCI-H460 xenograft. The “maximum body weight loss vs vehicle group” value with HuH-7 xenograft was “less than 5%”.
The IC50 is the concentration at which inhibition is half-maximal. Regarding “(N-hydroxy-7-(2-(3-(1- (hydroxyimino)ethyl)-4- methoxyphenyl)-6-morpholino-9H- purin-9-yl)heptanamide [compound 73]”, the IC50 in the data set with MV-4-11 was 500 to 2000 nM; in data set [7] it was < 10 nM; in the data set on PC-3 it was 2000 to 10000 nM.

Source of the values: patent US9957270B2, “Fused pyrimidine-based hydroxamate derivatives” (Agency for Science, Technology and Research, priority 2014, dated 2018).
